Assays:
Type in all cases: cell-based, Drosophila
C1.8 cells [1] = test: Primary small molecule screen in ZO Fortified, CyQUANT Direct Proliferation Assay; settings: C1.8 cells in ZO Fortified; for compound z-score (zC1.8): 4 days, z vs negative control, hit cutoffs z=±3; for hit call, primary screen: hit cutoffs ±3
Method: (§1) Five stock plates of randomized compounds (410 total) were prepared at 75 μM in water (1:133 dilution) using an automated liquid handler (Eppendorf EPMotion 5075). Strategically located negative control wells were incorporated into the stock plates by dosing wells with DMSO (1:133, carrier only control). Randomly placed positive control wells were also included by dosing wells with DMSO (1:133); for flexibility, positive controls were prepared in the working stock. Working stocks plates at 2 and 20 μM (2×) were then prepared in ZO Fortified by diluting the 5 stock plates 1:3.75 (high concentration working stock) and then serially diluting 1:10 (low concentration working stock). Positive control wells were prepared by replacing 10% of the media with 100% fly extract (FEX).
(§2) Cells were rinsed three times in PBS and seeded at a concentration of 50,000 cells/well (50 μL) in ZO Fortified (primary screen) or ZO Fortified supplemented with 2 μM spermidine (secondary screen) in 10 plates. Working stocks, 50 μL, were then immediately added on top of the cells (day 0). Plates were incubated at 25° C. for four days. On the fourth day, plates were imaged at 10× magnification on a confocal microscope using automated screen acquisition (Andor Spinning Disc Confocal Microscope, Metamorph Software). CyQUANT® Direct Proliferation Assay (Invitrogen) was then added (0.25× final conc.) and fluorescent intensity was measured with a plate reader (Biotek Synergy H2).
(§3) Five stock plates of randomized compounds in singlet (410 total) were prepared at 75 μM in water (1:133 dilution) using an automated liquid handler (Eppendorf epMotion® 5075). Ten strategically located negative controls were incorporated into each stock plate by dosing wells with DMSO (1:133, carrier only control) (Zhang, Optimal High-Throughput Screening: Practical Experimental Design and Data Analysis for Genome Scale RNAi Research, 2011). Four randomly placed positive control wells were also included on each plate by dosing wells with DMSO (1:133) for consistency, but for flexibility positive control treatments were prepared in the working stock. Working stocks at 2 and 20 μM (2×) were then prepared in ZO Fortified by diluting the 5 stock plates 1:3.75 (high concentration working stock) and then serially diluting 1:10 (low concentration working stock). Positive control wells were prepared by replacing 10% of the media with 100% fly extract (FEX) (see Zartman et al., Dev. Camb. Engl., 2013, 140, 667-674).
(§4) Cells were rinsed three times in phosphate buffered saline (PBS) and seeded at 50,000 cells/well (50 μL) in ZO Fortified. Working stocks, 50 μL, were then immediately added on top of the cells (day 0). Plates were incubated at 25° C. for four days, and then imaged at 10× magnification on a Nikon microscope using automated screen acquisition in MetaMorph® software. Plates were then treated with CyQUANT® (0.25× final concentration) for one hour at 25° C., and fluorescent intensity was measured with a plate reader (Biotek Synergy H2).
(§5) Strictly standardized mean difference (SSMD) scores for classifying assay quality were calculated with respect to negative controls on a plate-wise basis, with the average assay quality being excellent for both cell lines and screened concentrations. […] As a hit selection metric we used z-scores, which measure the number of standard deviations from the negative control that a small molecule treatment causes. Z-scores were calculated on a plate-wise basis, and hit cutoffs of z=±3 were selected. Visual inspection of images was used to remove false-positive hits, which generally occurred due to autofluorescence of a few of the compounds.

S2 cells [2] = test: as above; settings: for compound z-score (zS2): 4 days, z vs negative control, hit cutoffs z=±3; for hit call, primary screen: hit cutoffs ±3
Method: as §1, §2, §3, §4, §5

C1.8 cells [3] = test: Long-term culture in chemically defined medium; settings: passaged 1:2 retaining half of spent media
Method: (§6) Cells were rinsed 3× in PBS and then seeded at high confluency in ZO Fortified and ZB Media (ZO Fortified supplemented with 1 μM spermidine). Upon reaching confluency, cells were passaged 1:2 retaining half of the spent media.
(§7) C1.8, S2, and Kc167 (Kc) cells were expanded in optimized serum-containing media, C1.8, S2, and Kc167 media, respectively. C1.8 media contains M3 media (Sigma-Aldrich) supplemented with FBS (2%), insulin (5 μg/m), and fly extract (2.5%). S2 media is based on Schneider's media (Gibco® Life Technologies) supplemented with FBS (10%). Kc media containing M3 media supplemented with yeast extract (10 mg/mL), bactopeptone (25 mg/mL), and 5% FBS. All cell lines were obtained and cultured according to instructions from the Drosophila Genomics Resource Center (DGRC). Fly extract was prepared from adult yw flies as described by the DGRC. For culture in chemically defined media, cells were rinsed three times in PBS to remove residual serum and seeded at around 70% confluency in ZO Fortified or ZB Media (ZO Fortified with 1 μM spermidine added at time of passage). Upon reaching confluency, cells were passaged 1:2 retaining half the spent media, similar to routine maintenance in complete media, with cells passaged in ZB Media receiving fresh doses of 1 μM spermidine.

S2 cells [4] = test: Long-term culture in chemically defined medium; settings: passaged 1:2 retaining half of spent media
Method: as §6, §7

[5] = tested on: polyamine-depleted C1.8 cells; test: Polyamine-depleted spermidine dose-response, manual cell count; settings: ZO Fortified
Method: C1.8 cells were rinsed three times in PBS and seeded in ZO Fortified at 1×10^6 cell/mL. After nine days of culture in ZO Fortified, cells were harvested and seeded in tissue culture flasks in ZO Fortified supplemented with 0, 0.1, 1, or 10 μM spermidine (in triplicate). After 6 days of culture, cells were manually counted.

ERK in C1.8 cells = test: Western blot of ERK and dpERK (MAPK activity)
Method: (§8) For western blots, C1.8 and S2 cells were rinsed three times in PBS and seeded in tissue culture flasks at a concentration of 1,000,000 cell/mL in the various media. Cells were cultured until positive control samples (complete media) reached ˜90% confluency, at which point all cell samples were lysed for 30 minutes on ice in a buffer containing 50 mM Tris, 150 mM NaCl, 1% Nonidet P 40 substitute (Sigma 74385), and 1% Sigma protease inhibitor cocktail (P8340). Nucleic acid and cell debris were cleared by centrifugation at 12,000 rpm for 20 minutes at 4° C. Because polyamines are known to play roles in initiation of transcription and translation, “housekeeping” genes routinely used as loading controls for western blots are likely inappropriate for this application. Thus samples were normalized by total loaded protein. Sample protein concentrations were determined three independent times per sample using Coomassie Plus (Bradford) Assay (Thermo Scientific 23238). ANOVA comparison of loading concentrations across all samples found no significant variation between samples (p>0.34). Proteins were resolved by SDS-PAGE in reducing conditions, electroblotted to PVDF membranes (Hybone 10600087), and probed with either 1:1000 anti-rabbit p44/p42 MAPK (Erk1/2) (Cell Signaling) or 1:1500 anti-mouse MAPK (dpERK1/2) (Sigma). Blots were developed using WesternBreeze chromogenic western blot immunodetection kit (Invitrogen) and quantification was done in Fiji (Schindelin et al., Nat. Methods, 2012, 9, 676-682).

ERK in S2 cells = test: Western blot of ERK and dpERK (MAPK activity); settings: spermidine supplementation, p>0.45
Method: as §8

C1.8 cells [6] = test: Secondary screen in ZB Media (ZO Fortified with spermidine), CyQUANT; settings: C1.8 cells in ZB Media, hit cutoffs ±3
Method: as §1, §2
(§9) Representative positive and negative control wells can be found in FIG. 7. Compound z-scores were calculated similarly, hit cutoffs of ±3 were established visual inspection of confocal images was used to remove false-positive hits. This analysis yielded 8 C1.8 and 27 S2 positive hit compounds and 12 C1.8 and 27 S2 negative hit compounds (FIGS. 8-10).

S2 cells [7] = test: as above; settings: hit cutoffs ±3
Method: as §1, §2, §9

Row | SMILES | compound z-score (zC1.8) (C1.8 cells [1]) | compound z-score (zS2) (S2 cells [2]) | hit call, primary screen (C1.8 cells [1]) | hit call, primary screen (S2 cells [2]) | also measured
1 | CC(C)(C)c1cc(/C=C(\C#N)C(N)=S)cc(C(C)(C)C)c1O [AG-879] | −17.3 | −13.9 | – | – | –
2 | CO[C@@H]1[C@H](N(C)C(=O)c2ccccc2)C[C@H]2O[C@]1(C)n1c3ccccc3c3c4c(c5c6ccccc6n2c5c31)C(=O)NC4 [PKC-412] | −17.1 | −11.0 | – | – | –
3 | NCCCCNCCCN [spermidine] | 10.0 | 8.7 | positive hit | positive hit | passages reached in long-term culture (C1.8 cells [3]): ≥ 98 passages; passages reached in long-term culture (C1.8 cells [3]; listed as Spermidine): > 15 passages; passages reached in long-term culture (S2 cells [4]): 4 passages; proliferation (cell number) ([5]; 1 μM spermidine compared to 0 or 0.1 μM, 6 days, p<5×10^−10): significant increase in proliferation; proliferation (cell number) ([5]; higher dose (10 μM) spermidine, after 6 days): failed to produce any statistically significant increases in cell number; ERK double phosphorylation (dpERK) (ERK in C1.8 cells; spermidine supplementation (ZB Media) vs ZO Fortified, p<0.012): increase ERK double phosphorylation; total ERK levels (ERK in C1.8 cells; spermidine supplementation, p>0.45): not significantly influenced; total ERK levels (ERK in S2 cells): not significantly influenced
4 | CC(O)=C(C#N)C(=O)Nc1cc(Br)ccc1Br [LFM-A13, α-cyano-β-hydroxy-β-methyl-N-(2,5-dibromophenyl)propen-amide] | – | – | – | – | hit call, secondary screen (C1.8 cells [6]): positive hit; hit call, secondary screen (S2 cells [7]): positive hit
5 | Cc1cc(/C=C/c2ccc3cc(N(C)C)ccc3[n+]2C)c(C)n1-c1ccccc1 [pyrvinium pamoate] | −17.7 | −13.0 | – | – | –
6 | NCCCCN [putrescine, butane-1,4-diamine] | – | – | positive hits | positive hits | –
7 | CC1=C(O)C(=O)[C@@H]2O[C@@H]2C1=O [terreic acid] | – | – | – | – | hit call, secondary screen (C1.8 cells [6]): positive hit; hit call, secondary screen (S2 cells [7]): positive hit
8 | CN[C@@H]1C[C@H]2O[C@@](C)([C@@H]1OC)n1c3ccccc3c3c4c(c5c6ccccc6n2c5c31)C(=O)NC4 [staurosporine] | −18.6 | −17.3 | – | – | –
9 | NCCCNCCCCNCCCN [spermine] | 10.4 | 17.7 | positive hit | positive hit | –
